Measurements as given in paper PMC8815882, “Screening the pandemic response box identified benzimidazole carbamates, Olorofim and ravuconazole as promising drug candidates for the treatment of eumycetoma” (PLoS Neglected Tropical Diseases, 2022).
Where two headings read alike, the source gives them in different places.

Tested on: M. mycetomatis genome strain MM55
Assay: CLSI M38-A2 based in vitro susceptibility screening (XTT or resazurin), growth at fixed concentration
Assay type: cell-based, Madurella mycetomatis
Details: Madurella mycetomatis; for Percent fungal survival at 100 µM: read-out: Percentage survival at 100um, 100 uM A (second replicate column)
[1] = mean of three, M. mycetomatis MM55, read-out: Percentage survival at 25um, 25 uM mean
[2] = replicate A, M. mycetomatis MM55, read-out: Percentage survival at 25um, 25 um A
[3] = replicate B, M. mycetomatis MM55, read-out: Percentage survival at 25um, 25 uM B
[4] = replicate C, M. mycetomatis MM55, read-out: Percentage survival at 25um, 25 uM C
[5] = mean of three, M. mycetomatis MM55, read-out: Percentage survival at 100um, 100 uM mean
[6] = replicate 1, M. mycetomatis MM55, read-out: Percentage survival at 100um, 100 uM A (first replicate column)
[7] = replicate 2, M. mycetomatis MM55
[8] = replicate 3, M. mycetomatis MM55, read-out: Percentage survival at 100um, 100 uM A (third replicate column)
[9] = mean, read-out: Percentage survival at 25um, 25 uM mean
[10] = replicate A, read-out: Percentage survival at 25um, 25 um A
[11] = replicate B, read-out: Percentage survival at 25um, 25 uM B
[12] = replicate C, read-out: Percentage survival at 25um, 25 uM C
[13] = mean, read-out: Percentage survival at 100um, 100 uM mean
[14] = replicate (first column), read-out: Percentage survival at 100um, 100 uM A
[15] = replicate (second column), read-out: Percentage survival at 100um, 100 uM A
[16] = replicate (third column), read-out: Percentage survival at 100um, 100 uM A
[17] = mean of replicates, read-out: Percentage survival at 25um, 25 uM mean
[18] = mean of replicates, read-out: Percentage survival at 100um, 100 uM mean
[19] = replicate 1, read-out: Percentage survival at 100um, 100 uM A
[20] = replicate 2, read-out: Percentage survival at 100um, 100 uM A
[21] = replicate 3, read-out: Percentage survival at 100um, 100 uM A
[22] = mean of three replicates, read-out: Percentage survival at 25um, 25 uM mean
[23] = mean of three replicates, read-out: Percentage survival at 100um, 100 uM mean
[24] = replicate 1, read-out: Percentage survival at 100um, 100 uM A (first replicate column)
[25] = replicate 3, read-out: Percentage survival at 100um, 100 uM A (third replicate column)

OC1O[C@H](CSc2ccc(F)cc2)[C@@H](O)[C@H]1O (stereo partly drawn) [MMV1581550]
activity at 25 µM [1]: 91% | activity at 25 µM [2]: 97.5% | activity at 25 µM [3]: 90.1% | activity at 25 µM [4]: 85.4% | activity at 100 µM [5]: 85.6% | activity at 100 µM [6]: 80.9% | Percent fungal survival at 100 µM [7]: 92.1% | activity at 100 µM [8]: 83.9%

c1ccc(-c2nnc3c4ccccc4c(N4CCNCC4)nn23)cc1 [MMV1581551]
activity at 25 µM [9]: 84.6% | activity at 25 µM [10]: 93.2% | activity at 25 µM [11]: 85.9% | activity at 25 µM [12]: 74.8% | activity at 100 µM [13]: 37% | activity at 100 µM [14]: 10.9% | activity at 100 µM [15]: 52.3% | activity at 100 µM [16]: 47.9%

O=C(Nc1ccccc1)N(Cc1cc(Br)ccc1O)c1ccc(F)cc1 [MMV1581552]
activity at 25 µM [1]: 51.3% | activity at 25 µM [2]: 32.5% | activity at 25 µM [3]: 58.2% | activity at 25 µM [4]: 63.3% | activity at 100 µM [5]: 11.5% | activity at 100 µM [6]: 1.56% | Percent fungal survival at 100 µM [7]: 8.53% | activity at 100 µM [8]: 24.3%

COc1ccc2c(c1)cc(CNC(=O)c1cc3ccccc3o1)n2CC(=O)O [MMV1581553]
activity at 25 µM [9]: 76.7% | activity at 25 µM [10]: 87.4% | activity at 25 µM [11]: 70.5% | activity at 25 µM [12]: 72.3% | activity at 100 µM [13]: 88.6% | activity at 100 µM [14]: 90% | activity at 100 µM [15]: 85% | activity at 100 µM [16]: 90.9%

Nc1cc(N)c2nc(-c3ccccc3)c(Nc3ccc(F)cc3)nc2c1 [MMV1581554]
activity at 25 µM [1]: 92.5% | activity at 25 µM [2]: 97.1% | activity at 25 µM [3]: 91.3% | activity at 25 µM [4]: 89.3% | activity at 100 µM [5]: 89.9% | activity at 100 µM [6]: 116% | Percent fungal survival at 100 µM [7]: 80.3% | activity at 100 µM [8]: 73.1%

Nc1cccc(-c2nc(N)nc(NC3Cc4ccccc4C3)n2)c1 [MMV1581555]
activity at 25 µM [17]: 86% | activity at 25 µM [10]: 98.9% | activity at 25 µM [11]: 85.3% | activity at 25 µM [12]: 73.8% | activity at 100 µM [18]: 85.5% | activity at 100 µM [19]: 81.1% | activity at 100 µM [20]: 89% | activity at 100 µM [21]: 86.6%

NC(=O)c1[nH]c2ccc(S(N)(=O)=O)cc2c1-c1ccccc1 [MMV1581556]
activity at 25 µM [22]: 72.4% | activity at 25 µM [10]: 70.3% | activity at 25 µM [11]: 68.8% | activity at 25 µM [12]: 78.1% | activity at 100 µM [23]: 70.1% | activity at 100 µM [24]: 77.5% | Percent fungal survival at 100 µM (replicate 2): 68% | activity at 100 µM [25]: 64.9%

O=C(N[C@H](CCS)C(=O)N[C@H](Cc1ccccc1)C(=O)O)c1cc2ccccc2[nH]1 [MMV1581557]
activity at 25 µM [17]: 85.4% | activity at 25 µM [10]: 88.1% | activity at 25 µM [11]: 98.1% | activity at 25 µM [12]: 70% | activity at 100 µM [18]: 83.1% | activity at 100 µM [19]: 82.1% | activity at 100 µM [20]: 85.3% | activity at 100 µM [21]: 81.8%

Cc1cccc(C)c1C(=O)Nc1nc(-c2ccccn2)cc2ccccc12 [MMV1581558]
activity at 25 µM [22]: 77.1% | activity at 25 µM [10]: 65% | activity at 25 µM [11]: 114% | activity at 25 µM [12]: 52.4% | activity at 100 µM [23]: 86% | activity at 100 µM [24]: 76.1% | Percent fungal survival at 100 µM (replicate 2): 64.3% | activity at 100 µM [25]: 118%

CC(C)Cn1c(=O)n(C)c(=O)c2c(-c3cncn3C)n(Cc3cccc4ccccc34)nc21 [MMV1581559]
activity at 25 µM [22]: 58.5% | activity at 25 µM [10]: 82.8% | activity at 25 µM [11]: 69.9% | activity at 25 µM [12]: 22.7% | activity at 100 µM [23]: 3.57% | activity at 100 µM [24]: 1.05% | Percent fungal survival at 100 µM (replicate 2): 5.73% | activity at 100 µM [25]: 3.94%

CC(=N)N1CC[C@H](SC2=C(C(=O)O)N3C(=O)[C@@H]([C@@H](C)O)[C@H]3C2)C1 [MMV1582382]
activity at 25 µM [17]: 78.4% | activity at 25 µM [10]: 77.3% | activity at 25 µM [11]: 85.2% | activity at 25 µM [12]: 72.8% | activity at 100 µM [18]: 83.2% | activity at 100 µM [19]: 76.4% | activity at 100 µM [20]: 82.9% | activity at 100 µM [21]: 90.3%

CCCCCCCCC(CP(=O)(O)C(C)N)C(=O)O (stereo not drawn) [MMV1582487]
activity at 25 µM [17]: 84.2% | activity at 25 µM [10]: 90.3% | activity at 25 µM [11]: 86.2% | activity at 25 µM [12]: 76.2% | activity at 100 µM [18]: 95.3% | activity at 100 µM [19]: 85.8% | activity at 100 µM [20]: 103% | activity at 100 µM [21]: 97.5%
